According to US20080160006A1, “Nutrient Medium for Maintaining Neural Cells in Injured Nervous System” (priority 2001, published 2008):

Experiments:
[1] = tested on: human cortical brain cells (neurons vs glia); experiment: Adult human cortical brain cells cultured in B27/Neurobasal A, immunostained for neurofilament and GFAP; type: cell-based; conditions: for % GFAP (mean ± S.D.) / % Neurofilament (mean ± S.D.): addition to B27/Neurobasal A, after 6 days
Source text: (§1) GENERAL METHODS. Brain tissue was ethically obtained by informed consent from patients before surgery under protocols approved by the Springfield Committee for Research on Human Subjects and the UC Irvine IRB. […] Rather than using aspiration to remove all tissue, slices of tissue 1-3 mm thick were obtained from cortical access ports or tissue that was marginal to the lesion. Use of electrocautery was kept to a minimum to reduce oxyradicals and other neuron damage. […] Hibernate A contains D-glucose, pyruvate, balanced salts, amino acids, and vitamins. B27 contains 5 antioxidants and 15 other components. […] After transport on ice to a laminar flow sterile hood in the culture laboratory, meninges and white matter were removed from the tissue with a scalpel and forceps in a 35 mm dish in 2 ml transport medium. […] The cell suspension was enriched for neurons by centrifugation on a density gradient of Optiprep (Invitrogen). […] The diluted Optiprep was further diluted with transport medium (v/v) to make a gradient containing 4 steps of 1 ml in a 15 ml centrifuge tube: bottom (0.35:0.65), 0.25:0.75, 0.2:0.8, top (0.15:0.85). Up to 6 ml of cell suspension was layered over the Optiprep step gradient. […] Cells were plated at a density of 320/mm^2 onto glass coverslips coated with polylysine as previously described. Cells were cultured in Neurobasal™ A medium (Invitrogen) with 2 percent B27, 5 ng/ml FGF2 (basic human recombinant fibroblast growth factor, Invitrogen) and 0.5 mM glutamine in a humidified atmosphere of 9 percent O2, and 5 percent CO2 (Forma, Marietta, Ohio). […] EGF (20 ng/ml; murine, Invitrogen) and NT3 (100 ng/ml; recombinant, Regeneron) were added as indicated from 500× stock solutions in 1 percent BSA/PBS. Half of the medium was replaced with fresh medium every 3-4 days.
For immunocytology, cultures were rinsed twice in warm PBS and fixed for 10 minutes in 4 percent paraformaldehyde in PBS. After rinsing twice with PBS, cells for GFAP staining were postfixed for 20 minutes in acetic acid/ethanol (1:9, v/v) before rinsing again with PBS. Non-specific sites were blocked, and cells were permeabilized for 5 minutes in 5 percent normal goat serum, and 0.5 percent Triton X-100. Cells were incubated with primary antibodies for 1 hour at 22° C. in 5 percent goat serum, and 0.05 percent Triton as follows: mouse anti-neurofilament 200 (1:40, Sigma) with rabbit anti-cow GFAP (1:2000, Dako), or mouse anti-MAP2 (1:250, Boeringer-Mannheim) with rabbit anti-tau (1:2000). After rinsing four times with PBS, cells were incubated 1 hour at 22° C. with a rhodamine-conjugate of goat anti-rabbit IgG (heavy+light chain, 1:500, Tago) together with a cy2-conjugate of goat anti-mouse IgG (heavy+light chain, 1:100, Jackson). After rinsing four times in PBS, coverslips were mounted with Aquamount and imaged through a Nikon 60×/1.4 objective using a Spot cooled CCD camera (Diagnostic Instruments).
Human cortical brain tissue was obtained for culture from eleven consecutive surgical cases, including seven tumor cases, three cases of epilepsy, and one case of suprabulbar palsy. Patients ranged in age from 41 to 70 years.
Neuronal Characteristics of Isolated Cells. Cytoskeletal components were used as specific markers to distinguish neurons from glia. Microtubule associated proteins, MAP2 and tau, are generally associated with somatodendritic and axonal regions of neurons, respectively. Neurofilament 200 is a common intermediate filament protein restricted to neurons, and GFAP is restricted to astroglia. All preparations were immunostained for at least one of these markers.

human neurons = experiment: Survival of human neurons versus FGF2 concentration with or without DHEAS (FIG. 1); type: cell-based
Source text: as §1

[2] = surgical sample 1, glioma r. temporal, 46 M
[3] = surgical sample 2, tumor r. temporal, 69 M

For “FGF2: basic human recombinant fibroblast growth factor, Invitrogen”, the “% GFAP (mean ± S.D.)” value [1, 2] was 30 ± 7%, the “% Neurofilament (mean ± S.D.)” value [1, 2] was 67±7% and the “% GFAP (mean ± S.D.)” value [1, 3] was greater than 80%. For the same molecule, the “% Neurofilament (mean ± S.D.)” value [1, 3] was less than 10%, the “% Neurofilament (mean ± S.D.)” value ([1]; surgical sample 3, glioma l. frontal, 41 M) was 84 ± 8% and the “% Neurofilament (mean ± S.D.)” value ([1]; surgical sample 4, epilepsy l. superior temp. gyrus, 33 F) was 16 ± 5%. For the same molecule, the “% Neurofilament (mean ± S.D.)” value ([1]; surgical sample 5, meningioma r. temporal, 70 µM) was 17 ± 10%.

In the case of `C[C@]12CC[C@H](OS(=O)(=O)O)CC1=CC[C@@H]1[C@@H]2CC[C@]2(C)C(=O)CC[C@@H]12` [DHEAS, dehydroepiandrosterone 3-sulphate], the “lowering of the FGF2 ED50 for survival” value (human neurons; DHEAS at 10 μg/ml) is reported as 10 fold, the “survival at intermediate DHEAS concentrations” value (human neurons; DHEAS at 1 and 3 μg/ml, data not shown) is reported as “intermediate survival between 0 and 10 μg/ml” and the “survival with FGF2 at lower concentrations (FIG. 1)” value (human neurons; lower FGF2 concentrations) is reported as “synergistic for survival with FGF2”.

With “EGF: trophic factor EGF, murine, Invitrogen (NSYPGCPSSYDGYCLNGGVCMHIESLDSYTCNCVIGYSGDRCQTRDLRWWELR; Epidermal growth factor; UniProt P01132 977-1029, looked up)” the “survival of neurofilament positive cells versus FGF2 alone” value ([1]; added in addition to FGF2, sample 4) was “no more efficacious”.
